From PMC11396839, “Structure-Aided Computational Design of Triazole-Based Targeted Covalent Inhibitors of Cruzipain” (Molecules, 2024)
Like-named read-outs stand apart in the source and are kept apart here.

Assays:
[1] = target: T1, recombinant CZP (cruzain) (Trypanosoma cruzi, UniProt P25779); test: CZP inhibition, cleavage of fluorogenic substrate Z-FR-AMC (initial screening and IC50); type: biochemical, T. cruzi; conditions: for times lower potency than the most active analogues (Ald-6 and Ald-10): CZP IC50 ratio
T1 construct: gift of Allison Doak and Prof; Brian Shoichet (University of California San Francisco)
Protocol: The previously reported methods were followed to evaluate the in vitro activity against CZP [91, 92, 93, 94]. Allison Doak and Prof. Brian Shoichet (University of California San Francisco, San Francisco, CA, USA) generously provided recombinant CZP (cruzain). The enzyme activity was measured by monitoring the cleavage of the fluorogenic substrate Z-FR-AMC at 25 °C. Unless stated otherwise, assays were performed using 2.5 μ M of substrate ( KM = 0.5 ± 0.1 μ M) and 0.5 nM CZP in a 0.1 M sodium acetate buffer, pH 5.5, 0.01% Triton X-100 and 2 mM β -mercaptoethanol. DMSO and 1 μ M E-64 were employed as negative and positive controls, respectively, in all assays. Fluorescence was monitored at 340/440 nm (excitation/emission) over time in a Biotec 87 Synergy 2 fluorimeter at the Multiuser Laboratory of the Biochemistry and Immunology Department (UFMG, Belo Horizonte, Brazil). All assays were performed in triplicate in two independent experiments.
Initial screening. For the initial screening against CZP, compounds at 100 μ M were tested against CZP with and without a 10min pre-incubation with the enzyme. The fluorescence was monitored for 10 min at 5 s intervals. DMSO and E-64 were employed in all assays as negative and positive controls, respectively. Initial velocities of the negative control (DMSO) were compared to those in the presence of compounds to calculate the percentage of inhibition. The reported values correspond to the mean and standard error of the mean (SEM) of experiments performed in triplicate in two independent experiments.
IC50 determination. Compounds in at least eight distinct compound concentrations (400 μ M, 100 μ M, 25 μ M, 6.25 μ M, 1.5 μ M, 0.4 μ M, 0.1 μ M and 0.025 μ M) were incubated with CZP for 10 min, and once the substrate was added, the fluorescence was monitored for 10 min at 5 s intervals. IC50 curves were obtained from a non-linear fit of the inhibition values versus the logarithmic concentration of the compounds. The reported IC50 values are the mean and SEM of two independent measurements performed in triplicate.

[2] = target: T2, recombinant human cathepsin L (hCatL) (Homo sapiens, UniProt P07711); test: hCatL screening, cleavage of Z-FR-AMC; type: biochemical; conditions: for inhibition at 100 µM: read-out: % hCatL inhib.
T2 construct: purchased Sigma-Aldrich
Protocol: The recombinant human cathepsin L (hCatL) (Sigma-Aldrich) was activated prior to the assays. First, 10 ng/ μ L of the enzyme was incubated in the activation buffer (50 mM MES, pH 6, 1 mM EDTA, 5mM DTT) for 30 min at 37 °C. hCatL activity was measured based on the cleavage of the fluorescent substrate Z-FR-AMC in a Biotec 87 Synergy 2 fluorimeter at the Multiuser Laboratory of the Biochemistry and Immunology Department (UFMG, Brazil). The assays were executed in 96-well round bottom black plates in 50 mM MES buffer, pH 6, containing 1 mM EDTA, 5 mM DTT, 0.001% Triton-X100, 5 pg/ μ L enzyme and 25 μ M Z-FR-AMC at 37 °C. The triazole-based derivatives were tested against hCatL, at 100 μ M, with a 10 min pre-incubation with the enzyme. The initial velocities of the DMSO control were compared to those in the presence of the compounds. Assays were executed in triplicate in two independent experiments, and enzyme activity was measured for 20 min.

[3] = system: T. cruzi (Tulahuen trypomastigotes overexpressing β-galactosidase) in Vero cells; test: T. cruzi inhibition assay, infection model in Vero cells, β-galactosidase activity; type: cell-based, Trypanosoma cruzi; conditions: 50 μM (Ald-4 20 μM)
Protocol: To perform the assay, the drug screening method reported by Buckner et al. was adapted. Vero cells were seeded at 1 × 10^4 per well on 96-well culture plates in 100 μ L MEM-5% FBS. Tulahuen trypomastigotes overexpressing the E. coli β -galactosidase protein were distributed in triplicates on the plate. After a 2 h incubation at 37 °C, the culture media were extracted and replaced with fresh MEM-5% FBS with 1 μ M, 10 μ M or 50 μ M solutions of the triazole-based inhibitors, and the plate was incubated another 72 h at 37 °C. Ninety-six hours post infection, the cell culture media were removed and cells and intracellular amastigotes were lysed in 100 μ L lysis buffer (25 mM Tris pH 8, 2 mM EDTA, 2 mM DTT, 1% Triton X-100, 10% glycerol in ultrapure MQ water) for 10 min at 37 °C. Then, 100 μ L 2× reaction buffer (200 mM sodium phosphate pH 8, 2 mM MgCl2, 100 mM 2-mercaptoethanol and 1.33 mg.mL^−1 o-nitrophenyl- β -galactoside (ONPG)) was added and the reaction was allowed to proceed until a yellow color developed (1–2 h at 37 °C). The absorbance at 420 nm was measured in a Synergy HTX multi-mode microplate reader (Biotek Instruments, Winooski, VT, USA) and normalized to the value obtained for the infection in the absence of inhibitors. To determine its IC50, Ald-6 was evaluated at nine different concentrations (0.098, 0.195, 0.39, 0.78, 1.56 3.13 6.25, 12.5 and 50.0 μ M), following the same protocol. Each infection condition and inhibitor were tested in triplicates in four independent experiments.

[4] = 100 μM, 10 min pre-incubation of the enzyme with compound, read-out: % CZP inh.
[5] = 10 min incubation with CZP, mean ± SEM of two independent experiments, read-out: IC50 (μM) against CZP

T1 sequence (P25779 123-337): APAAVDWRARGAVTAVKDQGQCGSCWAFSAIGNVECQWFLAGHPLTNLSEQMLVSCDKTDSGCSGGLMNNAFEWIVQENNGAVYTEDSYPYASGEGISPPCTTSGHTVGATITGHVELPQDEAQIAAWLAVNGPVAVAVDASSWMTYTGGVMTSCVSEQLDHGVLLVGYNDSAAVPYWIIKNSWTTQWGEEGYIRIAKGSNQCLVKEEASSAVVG
T2 sequence (P07711 114-333): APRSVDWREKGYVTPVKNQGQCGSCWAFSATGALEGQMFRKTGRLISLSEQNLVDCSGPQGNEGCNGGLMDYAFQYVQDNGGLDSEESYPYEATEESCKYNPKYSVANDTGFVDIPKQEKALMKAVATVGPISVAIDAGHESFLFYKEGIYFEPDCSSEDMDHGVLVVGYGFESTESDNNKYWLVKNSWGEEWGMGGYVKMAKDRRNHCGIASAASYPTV

COC(=O)C(C(C)O)n1cc(C(NCc2ccc3c(c2)OCO3)C2CCCCC2)nn1 (stereo not drawn) [Es-11]
inhibition at 100 µM [1, 4]: 0%

COC(=O)C(Cc1c[nH]c2ccccc12)n1cc(C(NCc2ccc3c(c2)OCO3)C2CCCCC2)nn1 (stereo not drawn) [Es-12]
inhibition at 100 µM [1, 4]: 15 ± 2%

O=CC(Cc1ccccc1)n1cc(C(C2CCCCC2)N2CCc3ccccc3C2)nn1 (stereo not drawn) [Ald-16]
inhibition at 100 µM [1, 4]: 34 ± 5%

CC(O)C(C=O)n1cc(C(NCc2ccc3c(c2)OCO3)C2CCCCC2)nn1 (stereo not drawn) [Ald-11]
inhibition at 100 µM [1, 4]: 58 ± 4%

COC(=O)C(Cc1ccc(O)cc1)n1cc(C(C2CCCCC2)N2CCc3ccccc3C2)nn1 (stereo not drawn) [Es-23]
inhibition at 100 µM [1, 4]: 1 ± 14%

COC(=O)C(c1ccccc1)n1cc(C(C2CCCCC2)N2CCc3ccccc3C2)nn1 (stereo not drawn) [Es-19]
inhibition at 100 µM [1, 4]: 0%

O=CC(Cc1ccc(O)cc1)n1cc(C(NCc2ccc3c(c2)OCO3)C2CCCCC2)nn1 (stereo not drawn) [Ald-13]
inhibition at 100 µM [1, 4]: 83 ± 2%
IC50 [1, 5]: 13 ± 5 µM
times lower potency than the most active analogues (Ald-6 and Ald-10) [1]: 3.9
selectivity for CZP over hCatL in words ([2]; 100 μM): selective CZP inhibitors
inhibition at 100 µM ([2]; 10 min incubation): 0%

COC(=O)C(Cc1ccc(O)cc1)n1cc(C(NCc2ccc3c(c2)OCO3)C2CCCCC2)nn1 (stereo not drawn) [Es-13]
inhibition at 100 µM [1, 4]: 8 ± 1%

CC(O)C(C=O)n1cc(C(C2CCCCC2)N2CCc3ccccc3C2)nn1 (stereo not drawn) [Ald-21]
inhibition at 100 µM [1, 4]: 8 ± 7%

COC(=O)[C@H](CCCCN)n1cc(C(NCc2ccc3c(c2)OCO3)C2CCCCC2)nn1 (stereo partly drawn) [Es-6]
inhibition at 100 µM [1, 4]: 9 ± 2%

COC(=O)C(CCCNC(=N)N)n1cc(C(C2CCCCC2)N2CCc3ccccc3C2)nn1 (stereo not drawn) [Es-24]
inhibition at 100 µM [1, 4]: 6 ± 1%

CSCCC(C=O)n1cc(C(NCc2ccc3c(c2)OCO3)C2CCCCC2)nn1 (stereo not drawn) [Ald-7]
inhibition at 100 µM [1, 4]: 42 ± 7%

O=CC(c1ccccc1)n1cc(C(NCc2ccc3c(c2)OCO3)C2CCCCC2)nn1 (stereo not drawn) [Ald-9]
inhibition at 100 µM [1, 4]: 11 ± 3%

CSCCC(C=O)n1cc(C(C2CCCCC2)N2CCc3ccccc3C2)nn1 (stereo not drawn) [Ald-18]
inhibition at 100 µM [1, 4]: 16 ± 4%

O=CC(Cc1c[nH]c2ccccc12)n1cc(C(NCc2ccc3c(c2)OCO3)C2CCCCC2)nn1 (stereo not drawn) [Ald-12]
inhibition at 100 µM [1, 4]: 56 ± 7%
IC50 [1, 5]: 45.4 ± 0.3 µM
times lower potency than the most active analogues (Ald-6 and Ald-10) [1]: 13.8
selectivity for CZP over hCatL in words ([2]; 100 μM): selective CZP inhibitors
inhibition at 100 µM ([2]; 10 min incubation): 0%

COC(=O)C(Cc1c[nH]c2ccccc12)n1cc(C(C2CCCCC2)N2CCc3ccccc3C2)nn1 (stereo not drawn) [Es-22]
inhibition at 100 µM [1, 4]: 1 ± 6%

O=CC(CO)n1cc(C(C2CCCCC2)N2CCc3ccccc3C2)nn1 (stereo not drawn) [Ald-20]
IC50 [1]: 7 ± 4 µM
inhibition at 100 µM [1, 4]: 83 ± 3%
selectivity for CZP over hCatL in words ([2]; 100 μM): selective CZP inhibitors
inhibition at 100 µM ([2]; 10 min incubation): 0%
anti-T. cruzi/cytotoxicity balance in words [3]: acceptable anti-T. cruzi/cytotoxicity balance

COC(=O)[C@H](Cc1ccccc1)n1cc(C(NCc2ccc3c(c2)OCO3)C2CCCCC2)nn1 (stereo partly drawn) [Es-1]
inhibition at 100 µM [1, 4]: 15 ± 2%

O=CC(Cc1c[nH]cn1)n1cc(C(C2CCCCC2)N2CCc3ccccc3C2)nn1 (stereo not drawn) [Ald-17]
inhibition at 100 µM [1, 4]: 38 ± 6%

O=CC(Cc1c[nH]c2ccccc12)n1cc(C(C2CCCCC2)N2CCc3ccccc3C2)nn1 (stereo not drawn) [Ald-22]
inhibition at 100 µM [1, 4]: 55 ± 9%

COC(=O)C(CC(C)C)n1cc(C(NCc2ccc3c(c2)OCO3)C2CCCCC2)nn1 (stereo not drawn) [Es-5]
inhibition at 100 µM [1, 4]: 5 ± 2%

O=CC(Cc1ccccc1)n1cc(C(NCc2ccc3c(c2)OCO3)C2CCCCC2)nn1 (stereo not drawn) [Ald-1]
IC50 [1]: 41 ± 4 µM
inhibition at 100 µM [1, 4]: 64 ± 5%
times lower potency than the most active analogues (Ald-6 and Ald-10) [1]: 12.4
selectivity for CZP over hCatL in words ([2]; 100 μM): selective CZP inhibitors
inhibition at 100 µM ([2]; 10 min incubation): 0%

CCOC(=O)C(CCSC)n1cc(C(C2CCCCC2)N2CCc3ccccc3C2)nn1 (stereo not drawn) [Es-18]
inhibition at 100 µM [1, 4]: 0%

COC(=O)C(Cc1c[nH]cn1)n1cc(C(NCc2ccc3c(c2)OCO3)C2CCCCC2)nn1 (stereo not drawn) [Es-4]
inhibition at 100 µM [1, 4]: 5 ± 4%

COC(=O)C(C(C)O)n1cc(C(C2CCCCC2)N2CCc3ccccc3C2)nn1 (stereo not drawn) [Es-21]
inhibition at 100 µM [1, 4]: 0%

COC(=O)C(C(C)C)n1cc(C(NCc2ccc3c(c2)OCO3)C2CCCCC2)nn1 (stereo not drawn) [Es-2]
inhibition at 100 µM [1, 4]: 9 ± 7%

O=CC(c1ccccc1)n1cc(C(C2CCCCC2)N2CCc3ccccc3C2)nn1 (stereo not drawn) [Ald-19]
inhibition at 100 µM [1, 4]: 3 ± 10%

COC(=O)C(CCC(=O)O)n1cc(C(NCc2ccc3c(c2)OCO3)C2CCCCC2)nn1 (stereo not drawn) [Es-3]
inhibition at 100 µM [1, 4]: 8 ± 7%

COC(=O)C(c1ccccc1)n1cc(C(NCc2ccc3c(c2)OCO3)C2CCCCC2)nn1 (stereo not drawn) [Es-9]
inhibition at 100 µM [1, 4]: 6 ± 5%

COC(=O)C(CO)n1cc(C(C2CCCCC2)N2CCc3ccccc3C2)nn1 (stereo not drawn) [Es-20]
inhibition at 100 µM [1, 4]: 5 ± 4%

COC(=O)C(CO)n1cc(C(NCc2ccc3c(c2)OCO3)C2CCCCC2)nn1 (stereo not drawn) [Es-10]
inhibition at 100 µM [1, 4]: ≥ 47%
inhibition at 100 µM ([1]; read-out: % CZP inhib. wo/inc., 100 μM, without prior incubation): 43 ± 4%

CC(C)C[C@H](NC(=O)[C@H]1O[C@@H]1C(=O)O)C(=O)NCCCCN=C(N)N [E-64, reference compound]
CZP inhibition by positive control ([1]; 1 μM, 10 min preincubation): 98%
% CZP inh. ([1]; 100 μM, 10 min pre-incubation of the enzyme with compound): 98 ± 2%
% CZP inhib. wo/inc. ([1]; 100 μM, without prior incubation): 12± 8%
% hCatL inhib. ([2]; 100 μM, 10 min incubation): 97 ± 3%

CCOC(=O)C(Cc1ccccc1)n1cc(C(C2CCCCC2)N2CCc3ccccc3C2)nn1 (stereo not drawn) [Es-16]
inhibition at 100 µM [1, 4]: 13 ± 6%

O=CC(Cc1c[nH]cn1)n1cc(C(NCc2ccc3c(c2)OCO3)C2CCCCC2)nn1 (stereo not drawn) [Ald-4]
inhibition at 100 µM [1, 4]: 83 ± 2%
IC50 [1, 5]: 5 ± 2 µM
selectivity for CZP over hCatL in words ([2]; 100 μM): selective CZP inhibitors
inhibition at 100 µM ([2]; 10 min incubation): 10 ± 3%
anti-T. cruzi/cytotoxicity balance in words [3]: acceptable anti-T. cruzi/cytotoxicity balance

COC(=O)C(Cc1c[nH]cn1)n1cc(C(C2CCCCC2)N2CCc3ccccc3C2)nn1 (stereo not drawn) [Es-17]
inhibition at 100 µM [1, 4]: 6 ± 3%

CC(C)CC(C=O)n1cc(C(NCc2ccc3c(c2)OCO3)C2CCCCC2)nn1 (stereo not drawn) [Ald-5]
IC50 [1]: 7 ± 2 µM
inhibition at 100 µM [1, 4]: 64 ± 2%
selectivity for CZP over hCatL in words ([2]; 100 μM): selective CZP inhibitors
inhibition at 100 µM ([2]; 10 min incubation): 24 ± 9%

O=CC(CCC(=O)O)n1cc(C(NCc2ccc3c(c2)OCO3)C2CCCCC2)nn1 (stereo not drawn) [Ald-3]
CZP inhibitory activity in words [1]: not active at all
inhibition at 100 µM [1, 4]: 8 ± 2%

COC(=O)C(C)n1cc(C(NCc2ccc3c(c2)OCO3)C2CCCCC2)nn1 (stereo not drawn) [Es-8]
inhibition at 100 µM [1, 4]: 8 ± 7%
